{
  "source": "paper PMC8688955",
  "about": "(Frontiers in Pharmacology, 2021)",
  "test": "Solubility in the extracellular solution",
  "format": "physicochemical",
  "details": "concentrations above 500 µM could not be tested",
  "method": "The whole-cell patch-clamp technique was used for recording of membrane currents generated in response to applications of kainate. Series resistance of about 20 MΩ was compensated by 70–80% and monitored during experiments. Currents were recorded using an EPC-8 amplifier (HEKA Electronics, Lambrecht, Germany), filtered at 5 kHz, sampled, and stored on a personal computer. Drugs were applied using the RSC-200 perfusion system (BioLogic Science Instruments, Claix, France) under computer control. The solution exchange time in the whole-cell mode was 50–60 ms. The extracellular solution contained (in mM) NaCl 143, KCl 5, MgCl2 2.0, CaCl2 2.5, D-glucose 18, and HEPES 10 (pH was adjusted to 7.3 with HCl). The pipette solution contained (in mM) CsF 100, CsCl 40, NaCl 5, CaCl2 0.5, EGTA 5, and HEPES 10 (pH was adjusted to 7.2 with CsOH). Experiments were performed at room temperature (22–24°C). […] Lamotrigine, topiramate, levetiracetam, felbamate, carbamazepine, tiagabin, vigabatrin, zonisamide, and gabapentin were purchased from Tocris Bioscience (Bristol, United Kingdom). Perampanel was from MedChemExpress (Stockholm, Sweden). Kinetics of transient processes of more than 20-ms duration was approximated by exponential functions. Experiments were performed at −80 mV holding voltage. […] 3D structures of compounds were calculated by the ZMM software (zmmsoft.ca).",
  "data": [
    {"compound": "O=C1NC(=O)C(c2ccccc2)(c2ccccc2)N1", "note": "[Phenytoin]", "values": [
      {"measurement": "solubility in the extracellular solution", "value": "poor solubility"}
    ]}
  ]
}
